Marks after values point to notes of the source that are not given here.
Legend:
interleukin-2 (rIL-2) = test: Effect of ICN on interleukin-2 (rIL-2); format: in vivo; conditions: treatment group
Text: The methods of determination rIL-2 were regular.

white blood cells = test: Effect of ICN on white blood cells in rats treated by cyclophosphamide; format: in vivo
Text: Action of ICN and cyclophosphamide on white blood cells was investigated by means of white blood cells assay. […] Method of testing in animal is standard. The dosage of ICN and cyclophosphamide is the same as in above examples. Time of treatment is 10 days.

lymphocytes = test: Effect of ICN on lymphoblastoid transformation (3H-TdR liquid scintillation); format: in vivo, mice; conditions: 3H-TdR uptake, PHA-stimulated lymphocytes
Protocol: (1) Experimental procedure of animal is the same as in Example 2.
(2) Lemphoblastoid transformation test:
I. Reagents and conditions for cell culture
a. Culture media—RPMI 1640, medium 199 minimal essential medium (Eagle).
b. Buffer—Hepes buffer, the final concentration at 37° C. was 25 mM, to maintain the pH of the medium at 7.31.
c. Serum—generally 15-205 fetal bovine serum was incorporated, for lymphocytes from mice, 5% was used.
d. Gaseous phase—5% CO2 in air.
e. Cell concentration—generally 1-2 c 10^6/ml.
f. Stimulants—20μl/ml for phytohemagglutinin containing polysaccharide (PHA-M) or 10 μl/ml for polysaccharide-free purified phytohemagglutinin (PHA-P).
II. Measured by liquid scintillation
a. The conditions of cell culture are same as above. ^3H-TdR was added after 48 hours of incubation at a final concentration of 1 μCi/ml and continued the incubation for 24 hours.
b. Washed the cells twice with cold normal saline and the erythrocytes were lysed. The intact lymphocytes were again washed once with cold saline. Spun down the lymphocytes and added 2 ml of 10% trichloroacetic acid to precipitate the protein. Washed twice with normal saline. Added 2 ml of ethanol:ether (1:1) to wash once. 0.2 ml of formic acid was then added for digestion till the precipitate was dissolved.
c. Added 4 ml of scintillation fluid to 0.1 ml of the final sample and counted in a liquid scintillation counter.

testosterone = test: Effect of ICN on testosterone (radioimmune method); format: in vivo, Wistar male rats
Protocol: Thirty normal Wistar male rats weighing 280+20 g were selected.
The rats were killed 30th days after the administration. The testosterone level of the rats in various groups was determined by using radioimmune method. The index of testis was determined. Control group was pathological model group. In control group, rats treated by cyclophosphamide (CYE). Rats treated by ICN+CYE in treatment group.

human blood lymphocytes = test: Effects of ICN on immune function of human blood lymphocytes (3H-TdR incorporation); format: cell-based; conditions: for CPM (3H-TdR incorporation into lymphocytes): ICN added to culture medium
Protocol: 2 ml of venous blood, heparinized was obtained from each of the participants. […] MEM was supplemented with 0.125 ml of heat-inactivated fetal calf serum, 100 units of Penicillin and 0.1 mg of streptomycin per ml of medium. Culture medium was divided into treated (ICN) and control group. ICN was added to the culture medium of treatment group. […] The ^3H-thymidine (^3H-TdR) was added into all the cultures (2 μci/ml) for last 12 hours of culture. The cells were harvested on 0.45 μm filters, washed with phosphate buffer (ph 7.4) and bleached with H2O2. The filters were then dried and the incorporation of ^3H-TdR into lymphocytes cell was measured by scintillation counter.

peritoneal macrophage = test: Effect of ICN on phagocytosis of peritoneal macrophage; format: in vivo; conditions: mice, ICN 5.5 mg/kg i.p. daily for 5 days, cyclophosphamide 4.5 mg/kg; macrophages with phagocytized chick red blood cells per 100 macrophages
Protocol: The control mice were injected with same volume of normal saline. These injections were repeated daily for 5 days, both treated and control group were injected intraperitoneally with cyclosphosphamide. The dosage of cyclophosphamide is 4.5 mg/kg. The same experimental procedure for example 3, 4 and 5 in testing mice were used. Added 0.02 ml of 5% washed chick red blood cell suspension to 0.5 ml of the peritoneal exudates. Shook gently to mix and incubate at 37° C. for 5 minutes. Dipped two cover slips, closed to each other, in the above mixture and incubated for 30 minutes for the migration of the macrophages along the cover slips, fixed and stained with Sharma stain. Examined microscopically for: Phagocytic rate—number of macrophages with phagocytized chick red blood cells per 100 macrophages counted. Method of animal model is regular.

Lipoperoxides = test: Effect on peroxidation (hepatic lipoperoxide content); format: in vivo
Protocol: The animal experiments were performed as previously described. Hepatic lipoperoxide content was determined. In the present study, the effect of SCS on lipoperoxides was examined. It is known that the pathogenesis of CCl4—induced hepatic damage involved reactive oxidant species increasing from the metabolism. The liver injure caused by CCl4 is due to the formation of a reactive toxic metabolite by the hepatic cytochrome P-450 system.

[1] = system: bone marrow stem cells (CFU-S); test: Effects of ICN on hemopoietic system (spleen colony assay); format: in vivo, mice
Text: With increased cells in bone-marrow (BMC), endogenous colonies in spleen and higher ^3H-TdR uptake in marrow and spleen. The level of serum colony stimulating factor (CSF) increased after injection.

male mice = test: Effect of ICN on sexual behavior (ejaculation experiments); format: in vivo
Text: Selected 50 mice including male: 28-32g and female: 24-26g. The age of mice is over 8 weeks. The mice were divided normal group, suspend-loaded group, large dosage of ICN group, small dosage of ICN group and positive control group. The index of major sexual behaviors of male mice is ejaculation experiments operated on 15th day.

[2] = mice treated by cyclophosphamide

Icariin [ICN]
IL-2 (U/ml) ± SD (interleukin-2 (rIL-2)): 79.0 ± 8.5 U/ml | protection of white blood cells from killing effect of cyclophosphamide (white blood cells; rats): protected | White blood cells × 10^3/cm^3 ± SD (white blood cells; rats treated by cyclophosphamide, 10 days treatment): 12.8 ± 2.0* 10^3/cm^3 | CPM ± SD (lymphoblastoid transformation) (lymphocytes): 1150 ± 120 CPM | Testosterone level (testosterone; rats treated by ICN+CYE (cyclophosphamide), killed 30th day after administration, X ± SD): 154.6 ± 19.8 ng/dL | level of testosterone (in words) (testosterone; summary of Table 1): increase the level of testosterone significantly | CPM (3H-TdR incorporation into lymphocytes) (human blood lymphocytes; Old (n = 20)): 2500 ± 350 CPM | CPM (3H-TdR incorporation into lymphocytes) (human blood lymphocytes; Young (n = 20)): 8155 ± 986 CPM | human immune function (in words) (human blood lymphocytes; summary of Table 5-10): increase human immune function significantly | Phagocytic (rate ± SD) (peritoneal macrophage): 28.5 ± 3.0 | Lipoperoxides (Lipoperoxides; 1 h): 0.75 ± 0.08 mmol MDA/g liver protein | Lipoperoxides (Lipoperoxides; 3 h): 0.70 ± 0.07 mmol MDA/g liver protein | Lipoperoxides (Lipoperoxides; 6 h): 0.80 ± 0.9 mmol MDA/g liver protein | Lipoperoxides (Lipoperoxides; 12 h): 0.70 ± 0.9 mmol MDA/g liver protein | Lipoperoxides (Lipoperoxides; 24 h): 1.0 ± 0.12 mmol MDA/g liver protein | protection of stem cells of bone marrow from killing effect of cyclophosphamide ([1]; mice): protected | 3H-TdR uptake in marrow and spleen [1, 2]: higher | cells in bone-marrow (BMC) [1, 2]: increased | endogenous colonies in spleen [1, 2]: increased | recovery rate of hemopoieses [1, 2]: markedly improve | Mean (CFU-S ± SD) ([1]; mice treated by cyclophosphamide, spleen colony assay): 27.2 ± 3.0 | Ejaculation proportion (male mice; male mice, 15th day): 93% | treatment of infertility (in words) (male mice; summary of Table 4): marked efficiency
